# Experimental data reported in PMC12080319 (The Plant Journal, 2025).
# Substitutions are numbered along the chain they refer to.
# How the values were obtained:
# Test in all cases: microscale thermophoresis
# Type in all cases: binding
# OsNAT9 (OsNAT9-GFP) [1] = molecular target: T1, OsNAT9 (OsNAT9-GFP) (Oryza sativa, UniProt Q10ET9)
# T1 sequence (Q10ET9 1-527): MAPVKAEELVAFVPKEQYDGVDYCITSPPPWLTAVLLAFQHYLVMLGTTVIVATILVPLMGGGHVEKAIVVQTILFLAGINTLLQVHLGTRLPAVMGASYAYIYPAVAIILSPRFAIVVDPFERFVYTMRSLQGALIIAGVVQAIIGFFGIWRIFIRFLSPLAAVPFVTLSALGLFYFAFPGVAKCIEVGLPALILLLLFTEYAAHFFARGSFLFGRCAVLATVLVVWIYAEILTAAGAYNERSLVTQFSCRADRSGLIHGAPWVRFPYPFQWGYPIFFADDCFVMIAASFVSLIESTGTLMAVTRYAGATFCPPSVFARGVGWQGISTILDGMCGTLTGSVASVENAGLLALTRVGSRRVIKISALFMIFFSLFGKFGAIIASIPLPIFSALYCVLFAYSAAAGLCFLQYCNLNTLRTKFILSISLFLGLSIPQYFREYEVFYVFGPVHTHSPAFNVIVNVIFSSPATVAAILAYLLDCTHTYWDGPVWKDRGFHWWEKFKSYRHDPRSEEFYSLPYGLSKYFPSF
# OsNAT9 (OsNAT9-GFP) [2] = molecular target: T2, OsNAT9 (OsNAT9-GFP) (Oryza sativa, UniProt Q10ET9, G349A)
# T2 sequence (Q10ET9 1-527 G349A): T1 sequence (Q10ET9 1-527) with G349A
# OsNAT9 (OsNAT9-GFP) [3] = molecular target: T3, OsNAT9 (OsNAT9-GFP) (Oryza sativa, UniProt Q10ET9, S344A)
# T3 sequence (Q10ET9 1-527 S344A): T1 sequence (Q10ET9 1-527) with S344A
# OsNAT9 (OsNAT9-GFP) [4] = molecular target: T4, OsNAT9 (OsNAT9-GFP) (Oryza sativa, UniProt Q10ET9, E346A)
# T4 sequence (Q10ET9 1-527 E346A): T1 sequence (Q10ET9 1-527) with E346A
SMILES,Kd (OsNAT9 (OsNAT9-GFP) [1]),Kd (OsNAT9 (OsNAT9-GFP) [2]),Kd (OsNAT9 (OsNAT9-GFP) [3]),Kd (OsNAT9 (OsNAT9-GFP) [4])
O=c1[nH]c(=O)c2[nH]cnc2[nH]1 [xanthine],0.39 ± 0.11 nM,,,
"O=C1O[C@H]([C@@H](O)CO)C(O)=C1O [AsA, ascorbic acid]",0.28 ± 0.23 nM,0.55 ± 0.53 nM,101 ± 27.6 nM,80.7 ± 6.06 nM
